Assay results published in patent publication US12297176B2, “Compounds and methods for inhibiting EMT pathways to treat cancer, organ fibrosis and metabolic disorders” (University of Pittsburgh—Of the Commonwealth System of …, priority 2017, dated 2025).

Columns and labels:
Hippo pathway = Hippo pathway luciferase reporter in 293 cells; format: cell-based; settings: 24 hours
Procedure: (§1) FIGS. 1A-1C. CPADAML16 is a common inhibitor of Wnt (FIG. 1C), TGF beta (FIG. 1B), and Hippo (FIG. 1A). 293 cells were transfected with luciferase reporters corresponding to each pathway and then exposed to CPADAML16, the Wnt inhibitor Pyrvinium (PYR) or the TGF beta inhibitor SB-431 at the indicated concentrations. After 24 hours, the cells were lysed and luciferase activity measured. Data represents average of three replicates ±SE.
The present disclosure concerns the discovery of small molecules inhibitors of major EMT pathways particularly those mediated by TGF beta, Wnt and Hippo. These pathways are known to play key roles in the induction of epithelial-mesenchymal transition (EMT) a cellular process responsible for cancer metastasis, resistance to therapy and organ fibrosis. […] In a search for putative inhibitors of the Hippo pathway, a luciferase reporter system was used to screen a series of chemical compounds. […] CPADAML16 suppressed cancer cell ability to undergo EMT, to proliferate and to become drug resistant. Investigation of the underlying mechanism led to the finding that CPADAML16 induces degradation of the Hippo transducer TAZ mainly by activating AMPK upstream of the GSK3 beta associated degradation complex. CPADAML16 exerted a strong anti-tumor activity in a xenograft mice model with no noticeable toxicity. […]

Wnt signaling = assay: Wnt pathway luciferase reporter in 293 cells; format: cell-based; settings: 24 hours
Procedure: as §1
(§2) By comparison, none of Wnt or TGF beta inhibitors had affected the Hippo pathway reporter. Based on this, CPADAML16 may represent a unique candidate molecule to target simultaneously the Hippo, Wnt and TGF beta pathways.

TGF beta signaling = assay: TGF beta pathway luciferase reporter in 293 cells; format: cell-based; settings: 24 hours
Procedure: as §1, §2

TAZ = assay: Western blot of Hippo pathway transducers: TAZ; format: cell-based
Source text: (§3) FIGS. 2A-2D. Putative mechanism. FIG. 2A. Effect of CPADAML16 on Hippo pathway transduces YAP, TAZ and TEAD measured by Western blot. FIG. 2B. Possible signaling pathways leading to degradation of TAZ. The effects of CPADAML16 on the Mst/Lats kinases and the Akt/GSK3 beta axis are shown in FIGS. 2C and 2D, respectively.
(§4) There are three possibilities by which this might occur (FIG. 2B): 1) through activation Mst/Lats, 2) inhibition of Akt or 3) activation of AMPK. […] In light of recent findings that TAZ is also target of the GSK3 beta associated destruction complex, we reasoned that CPADAML16 may act directly or indirectly to activate this complex. […] These effects were concentration and time dependent and valid in various cell lines […]. […] Together these findings identified AMPK as a novel target of CPADAML16, shedding light on a new mechanism by which this compound could signal for TAZ degradation and inhibition of Hippo signaling.

YAP = assay: Western blot of Hippo pathway transducers: YAP; format: cell-based
Source text: as §3, §4

TEAD = assay: Western blot of Hippo pathway transducers: TEAD; format: cell-based
Source text: as §3, §4

MST1 = assay: Activation (phosphorylation) of Hippo core kinase MST1; format: cell-based
Source text: as §3, §4

Lats1 = assay: Activation (phosphorylation) of Hippo core kinase Lats1; format: cell-based
Source text: as §3, §4

GSK3 beta = assay: Phosphorylation of GSK3; format: cell-based; settings: inhibited phosphorylation = induced activation
Source text: as §3, §4

Akt = assay: Phosphorylation of Akt; format: cell-based
Source text: as §3, §4

AMPK = assay: Phosphorylation of AMPK at threonine 172; format: cell-based
Source text: FIGS. 3A-3G. Effect of CPADAML16 on […]. FIGS. 3A and 3B. Dose and time dependent effects of CPADAML16 on phosphorylation of AMPK. FIG. 3C. Effect of AICAR on phosphorylation of AMPK. FIG. 3D. Effect of CPADAML16 on phosphorylation of AMPK downstream target ACC. FIGS. 3E-3G. Confirmation CPADAML16-induced AMPK phosphorylation in different cell lines.
as §4

cell migration = assay: Cell monolayer scratch, cell migration; format: cell-based
Procedure: (§5) FIGS. 4A-4C. Inhibition of cell migration, proliferation and resistance to therapy by CPADAML16. FIG. 4A. Cell monolayer scratch depicting inhibition of cell migration by CPADAML16. FIG. 4B. Effect on cell proliferation measured after 5 days of incubation. FIG. 4C. Cell response to doxorubicin was measured in the presence and absence of CPADAML16. Data in FIG. 4C represent average of three determinations ±SE.

[1] = tested on: three melanoma and one breast cancer cell lines; assay: Cell proliferation after 5 days of incubation; format: cell-based
Procedure: as §5

melanoma cell = assay: Cell response to doxorubicin with and without compound; format: cell-based
Procedure: as §5

melanoma cells WM266 = assay: Anti-tumor activity in mice bearing xenograft tumors; format: in vivo, nude mice (strain CD1); settings: 20 mg/Kg, 3 injections, end of experiment
Procedure: (§6) FIGS. 5A-5B. Effect of CPADAML16 (20 mg/kg) on tumor growth (FIG. 5A) and body weight (FIG. 5B). Data represents 7 replicates ±SE.
(§7) Experiments were carried out to analyse the anti-tumor activity and safety of CPADAML16 in mice bearing xenograft tumors. For this, nude mice (strain CD1) were sub-cutaneously inoculated with melanoma cells WM266 and after tumors became palpable, they were randomized into control and treatment groups and received 3 injections (starting on day 15 and separated by three days) of vehicle (control group) or CPADAML16 dissolved in the vehicle solution (treatment groups). Tumor volumes and body weight were measured and mice evaluated for signs of toxicity on a daily basis. At the end of experiments, the animals were sacrificed and tumors harvested to determine if molecular targets of CPADAML16 were altered.

[2] = Body weight and signs of toxicity in xenograft mice; format: in vivo, nude mice (strain CD1); settings: WM266 xenograft mice
Procedure: as §6, §7

CCCCCOc1ccccc1C(=O)c1cc(C(=O)OCC)c(=O)n(Cc2ccccc2)c1 [CPADAML16, 3-Ethoxycarbonyl-5-(o-pentyloxybenzoyl)-1-(benzyl)pyridin-2-one]
Hippo pathway reporter luciferase activity (Hippo pathway): remarkable inhibitory activity
Wnt signaling reporter luciferase activity (Wnt signaling): remarkably inhibited
TGF beta signaling reporter luciferase activity (TGF beta signaling): remarkably inhibited
Taz levels (TAZ): reduced in a concentration dependent manner
YAP levels (YAP): largely unaltered
TEAD levels (TEAD): largely unaltered
phosphorylation of MST1 (MST1): did not affected phosphorylation
phosphorylation of Lats1 (Lats1): did not affected phosphorylation
phosphorylation of GSK3 (GSK3 beta): inhibited phosphorylation
phosphorylation of Akt (Akt): not due to reduced phosphorylation of Akt
potency of AMPK activation compared with AICAR (AMPK): more potent than AICAR
phosphorylation of AMPK at threonine 172 (AMPK; concentration and time dependent, various cell lines): strongly induced phosphorylation
cell migration (cell migration): strongly inhibits
proliferation [1]: strongly inhibits
melanoma cell response to doxorubicin in the presence of the compound (melanoma cell): significantly enhanced
tumor growth inhibition (melanoma cells WM266): about 90%
body weight ([2]; 20 mg/kg): did not change significantly
health / signs of toxicity ([2]; evaluated daily): in good health throughout the experiment
